Legend:
[1] = target: Vitamin K epoxide reductase complex subunit 1 (Homo sapiens, UniProt Q9BQB6); experiment: Inhibition of recombinant human wild-type VKORC1 expressed in Pichia pastoris membrane incubated for 30 mins in presence of presence of dithiothreitol by LC-APCI/MS/MS analysis; type: cell membranes
[2] = Metabolic stability in rat hepatocytes assessed as half life; type: ADME, cell-based, Hepatocyte

Sequence of Vitamin K epoxide reductase complex subunit 1 (Q9BQB6 whole entry, one chain of several): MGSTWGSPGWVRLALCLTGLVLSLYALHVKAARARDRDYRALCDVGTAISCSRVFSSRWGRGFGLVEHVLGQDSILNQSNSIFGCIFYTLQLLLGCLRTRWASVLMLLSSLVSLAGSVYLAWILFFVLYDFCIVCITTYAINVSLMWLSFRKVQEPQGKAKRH

Structure (SMILES)	IC50 [1] [µM]	half-life [2] [days]
COc1cccc(Cc2c(O)c3ccccc3oc2=O)c1	5.53	
O=c1oc2ccccc2c(O)c1Cc1ccc2c(c1)OCO2	0.873	
CC(c1ccccc1)c1c(O)c2ccccc2oc1=O (stereo not given)	1.53	
O=c1oc2ccccc2c(O)c1C1CC(c2ccc(OCc3ccc(C(F)(F)F)cc3)cc2)Cc2ccccc21 (stereo not given)		215
O=c1oc2ccccc2c(O)c1C1CC(c2ccc(-c3ccccc3)cc2)Cc2ccccc21 (stereo not given)		118
O=c1oc2ccccc2c(O)c1Cc1cccnc1	23.9	
O=c1oc2ccccc2c(O)c1Cc1ccc(Br)cc1	0.643	
CSc1ccc(Cc2c(O)c3ccccc3oc2=O)cc1	0.527	
COc1ccc(Cc2c(O)c3ccccc3oc2=O)cc1	2.72	
CC(C)=CCC/C(C)=C\CC/C(C)=C\Cc1c(O)c2ccccc2oc1=O	0.098	
O=c1oc2ccccc2c(O)c1Cc1ccc(C(F)(F)F)cc1	0.498	
O=c1oc2ccccc2c(O)c1C1CC(c2ccc(-c3ccc(Br)cc3)cc2)Cc2ccccc21 (stereo not given) [BRODIFACOUM]	0.15	
O=c1oc2ccccc2c(O)c1C(CC(O)c1ccc(-c2ccc(Br)cc2)cc1)c1ccccc1 (stereo not given) [BROMODIOLONE]		170
CC(C)=CCc1c(O)c2ccccc2oc1=O [ISOPRENYLCOUMARIN]	79	
CC(O)CC(c1ccccc1)c1c(O)c2ccccc2oc1=O (stereo not given) [WARFARIN ALCOHOL]	12.5	

Source: ChEMBL document CHEMBL5365523, “Design of a structure-activity relationship model of vitamin K epoxide reductase (VKORC1) inhibitors combining chemical synthesis of new compounds, enzymatic assays and molecular modelling” (Bioorg Med Chem, 2023)
